# Experiments:
# [1] = Solvatochromic studies of 4QI; format: physicochemical
# Description: (§1) All fluorescence excitation and emission measurements were made at 25.00° C. using a PTI Alphascan-2 spectrofluorometer equipped with a 1×4 Multicell Block Peltier and temperature controller, with baseline correction and variable slit widths as specified. All fluorescence excitation spectra were recorded at the maximum emission wavelength of the fluorophore and emission spectra were recorded at the maximum excitation wavelength.
# Solvatochromatic studies were completed using quartz cells (Hellma 101-QS) with a light path of 10 mm. A 100 μM stock solution of 4QI was prepared in reagent grade DMSO. Using the stock solution, 3 μM solutions of 4QI were prepared in a series of solvents: MQ water, methanol, acetonitrile, THF, chloroform and isopropyl alcohol. After mixing by inversion (×20), emission and excitation spectra for each sample were recorded as described using slit widths of 5 nm.
# [2] = Photophysical characterization of 4QI (fluorescence spectrometry); format: physicochemical
# Description: as §1
# 4QI-alcohol and 4QI-DMT contain the same fluorophore such that characterization of 4QI-alcohol is representative of the solvatochromic and photophysical capacity of the 4QI fluorophore. […] Excitation and emission in the visible region as opposed to the ultraviolet (UV) region is favorable because the dye can be excited using a visible lamp rather than a more expensive UV lamp.
# [3] = Kinetic studies of 4QI under oligonucleotide deprotection conditions; format: physicochemical
# Description: Recall that standard conditions for oligonucleotide deprotection involve heating to 55° C. for 4 h in ammonium hydroxide (Table 3). […] Therefore, all mTBA were deprotected under UltraMild conditions.
# [4] = Photostability of 4QI within a DNA helix; format: physicochemical; details: 6-month period, aqueous buffer pH 7.4
# Description: The 4QI dye was attached to a glycerol backbone and converted into a phosphoramidite for site-specific incorporation into DNA using solid phase DNA synthesis.
# OTABA [5] = test: Fluorescent titration of dye binding to OTABA; details: for Kd: apparent, dye binding to OTABA; for λem / λex: dye bound to OTABA; for λex (value in parentheses): footnote not given, line below the bound value
# Description: Dye interaction with OTABA and subsequent displacement by OTA was initially investigated using fluorescence spectroscopy (FIG. 17) in the previously optimized OTA binding buffer. (Fadock et al., 2017) Additions of OTABA (up to 1.5 equiv.) to the dye (6 μM) caused dose-dependent increases in ligand emission at 488 nm for ThT (240-fold increase at 1.5 equiv. OTABA, FIG. 17a), 605 nm for the 4QI (42-fold, FIG. 17b) and 640 nm for BtC (8-fold, FIG. 17c).
# OTABA [6] = test: Dye displacement from OTABA mediated by OTA (label-free aptasensor); format: binding; details: for Kd: apparent, OTA binding to OTABA from dye displacement, 0.5 μM OTABA; for % D (6 → 0.5 μM): OTA up to 1.5 equiv
# Description: For dye displacement from the aptamer mediated by OTA, a 2:1 dye:OTABA mixture (12:6 μM) was treated with aliquots of OTA up to 1.5 equiv. (9 μM). Under these conditions, ThT was poorly displaced from the aptamer, displaying only a 6% drop in emission intensity (FIG. 17d). […] Significant differences in the ability of OTA to displace the dyes from the aptamer was not anticipated. Furthermore, given the relative binding affinities of the dyes for OTABA, ThT was expected to display the greatest ease of displacement. Clearly the ability of OTA to displace the dyes from the aptamer had little to do with the dye aptamer binding affinity.
# To determine the analytical potential of the dye displacement assay, the 2:1 dye:OTABA starting mixture was optimized and the OTA titrations were repeated using 0.5 μM OTABA in the presence of 1 μM dye. […] Additions of OTA up to 1.5 equiv (0.75 μM) caused 93% BtC displacement, as evidenced by the loss of emission intensity for the aptamer-bound BtC at 640 nm, coupled with the loss of the ET band at 256 nm for BtC stacking with the G-tetrad of the folded aptamer.
# From the OTA titrations involving hemicyanine dye displacement (4QI and BtC), a limit of detection (LoD)˜15 nM (6 ng/mL) and a limit of quantification (LoQ)˜45-47 nM (˜18 ng/mL) were determined (R^2=0.95-0.99). In contrast, an LoD of 73 nM (29 ng/mL) and LoQ of 222 nM (89 ng/mL, R^2=0.85) was determined from the ThT displacement data.
# [7] = format: physicochemical; details: 6 μM oligonucleotide, 10% K+ buffer
# thrombin = thrombin (Homo sapiens, UniProt P00734); details: isothermal titration calorimetry (Pagano et al. 2008); cited from earlier work
# [8] = first value: 6 μM OTABA, 12 μM dye
# [9] = second value: 0.5 μM OTABA, 1 μM dye
Compound,Kd (OTABA [5]),λem (OTABA [5]),λex (OTABA [5]),λex (value in parentheses) (OTABA [5]),Kd (OTABA [6]; 1 μM dye),% D (6 → 0.5 μM) (OTABA [6]; [8]),% D (6 → 0.5 μM) (OTABA [6]; [9]),also measured
"C[n+]1ccc(/C=C/c2cn(CCCO)c3ccccc23)c2ccccc21.[I-] [4QI, 4-(2-(1-(3-hydroxypropyl)-1H-indol-3-yl)vinyl)-1-methylquinolin-1-ium iodide]",2500 nM,605 nm,532 nm,(493) nm,356 nM,28%,47%,"λex max ([1]; Acetonitrile): 494 nm; λex max ([1]; H2O): 486 nm; λex max ([1]; Isopropyl-alcohol): 523 nm; λex max ([1]; Methanol): 512 nm; λex max ([1]; THF): 514 nm; Stokes shift [2]: 104 nm; extinction coefficient [2]: 26,660 L/(mol·cm); stokes shift [2]: 90 nm; fluorescence emission ([2]; following excitation at 500 nm): 590 nm; λem maxima ([2]; free in H2O): 580 nm; λex maxima ([2]; free in H2O): 520 nm; time to complete bleaching of 4QI absorbance ([3]; Standard deprotection conditions): ≤ 6.5 h; time to complete bleaching of 4QI absorbance ([3]; UltraFast deprotection conditions): ≤ 0.05 h; decrease of fluorescence intensity ([3]; UltraMild conditions, 17-hour kinetic study): 11%; photostability [4]: photostable"
CCN(CC)c1ccc2cc(/C=C/c3sc4ccccc4[n+]3C)c(=O)oc2c1 [BtC],3200 nM,640 nm,580 nm,(549) nm,112 ± 8.9 nM,52%,93%,
"Cc1ccc2c(c1)sc(-c1ccc(N(C)C)cc1)[n+]2C [ThT, Thioflavin T]",10900 nM,488 nm,448 nm,(412) nm,292 nM,6%,23%,
TBA-15: Native thrombin binding aptamer 5′-GGTTGGTGTGGTTGG,,,,,,,,Tm GQ [7]: 53.5 °C; Kd (thrombin): 330 nM

# Source: patent publication US11215619B2 (priority 2019, dated 2022)
